Experimental data reported in patent publication US12344610B2, “APOL1 inhibitors and methods of use” (Maze Therapeutics, Inc., priority 2022, dated 2025).

Tests used:
[1] = tested on: HEK293 clonal cell line overexpressing APOL1 G1; assay: APOL1 G1 HEK293 cell rescue assay (Example B3); assay type: cell-based; conditions: Homo sapiens, HEK293, HEK293 clonal line overexpressing APOL1 G1; geometric mean of at least 2 runs; † = single run; ¥ = concentration at 50% rescue estimated (no sigmoidal curve)
Method: Compounds were also assayed in a HEK293 clonal cell line overexpressing APOL1 G1 by a method similar to that shown in Example B2 above.
Unless otherwise specified, EC50 values are reported as the geometric mean of at least 2 assay runs on separate days. Each run represents the average of a technical replicate, where each compound was assayed twice in the same plate. A superscript † symbol indicates a value from the average of a technical replicate from a single assay run, where each compound was assayed twice in the same plate. A ¥ symbol represents compound concentration at 50% rescue estimated due to lack of sigmoidal curve preventing curve fitting. Compounds in Table 41 are referred to by the corresponding Compound Number in Table 1, which is also referred to in the synthetic examples. When one or more of the numbered compounds are identified by stereochemistry (for example, (R)- or (S)-), the specific stereoisomer for which data is provided in Table 41 may be identified by the elution order of such compound as described in the synthetic examples. Absolute stereochemistry of such compounds may be identified by methods known in the art. For Table 41 below, n/a represents “not available”.
Rescue EC50 values reported in Table 41 below represent the half-maximal effective concentration for reversal of cell death caused by overexpression of APOL1.

[2] = tested on: HEK293 cells overexpressing APOL1 G2; assay: APOL1 G2 HEK293 cell rescue assay (reversal of cell death caused by overexpression of APOL1); assay type: cell-based; conditions: Homo sapiens, HEK293, HEK293 overexpressing APOL1 G2; geometric mean of at least 2 assay runs; † = single assay run
Method: Unless otherwise specified, EC50 values are reported as the geometric mean of at least 2 assay runs on separate days. Each run represents the average of a technical replicate, where each compound was assayed twice in the same plate. A superscript t symbol indicates a value from the average of a technical replicate from a single assay run, where each compound was assayed twice in the same plate. Compounds in Table 40 are referred to by the corresponding Compound Number in Table 1, which is also referred to in the synthetic examples. When one or more of the numbered compounds are identified by stereochemistry (for example, (R)- or (S)-), the specific stereoisomer for which data is provided in Table 40 may be identified by the elution order of such compound as described in the synthetic examples. Absolute stereochemistry of such compounds may be identified by methods known in the art. For Table 40 below, n/a represents “not available”.
Rescue EC50 values reported in Table 40 below represent the half-maximal effective concentration for reversal of cell death caused by overexpression of APOL1.

SMILES	EC50 [1] [nM]	EC50 [2] [nM]
CC1(O)CC(c2ncc(OCCN3CCC4(CC3)C(=O)Nc3ccc(Cl)cc34)cn2)C1 (stereo not drawn) [Compound 373, 5-chloro-1′-(2-{[2-(3-hydroxy-3-methylcyclobutyl)pyrimidin-5-yl]oxy}ethyl)-1,2-dihydrospiro[indole-3,4′-piperidin]-2-one]	133	53.4
C[C@]1(O)C[C@@H](n2c(=O)[nH]c3cc(OCCN4CCC5(CC4)C(=O)Nc4ccc(Cl)cc45)cnc32)C1 [Compound 374, 5-chloro-1′-[2-({2-oxo-3-[(cis)-3-hydroxy-3-methylcyclobutyl]-1H,2H,3H-imidazo[4,5-b]pyridin-6-yl}oxy)ethyl]-1,2-dihydrospiro[indole-3,4′-piperidin]-2-one]	216	101
CC(O)c1ncc(OCCN2CCC3(CC2)C(=O)Nc2ccc(Cl)cc23)cc1C(F)(F)F (stereo not drawn) [Compound 399, 5-chloro-1′-(2-{[6-(1-hydroxyethyl)-5-(trifluoromethyl)pyridin-3-yl]oxy}ethyl)-1,2-dihydrospiro[indole-3,4′-piperidin]-2-one]	117	49.8
CS(=O)(=O)C1(c2ncc(OCCN3CCC4(CC3)C(=O)Nc3c(Cl)cc(Cl)cc34)cn2)CC1 [Compound 400, 5,7-dichloro-1′-(2-{[2-(1-methanesulfonylcyclopropyl)pyrimidin-5-yl]oxy}ethyl)-1,2-dihydrospiro[indole-3,4′-piperidin]-2-one]	678	224
C[C@]1(O)C[C@@H](N2C(=O)CCc3cc(OCCN4CCC5(CC4)C(=O)Nc4c(Cl)cc(Cl)cc45)cnc32)C1 [Compound 409, 5,7-dichloro-1′-[2-({7-oxo-8-[(cis)-3-hydroxy-3-methylcyclobutyl]-5,6,7,8-tetrahydro-1,8-naphthyridin-3-yl}oxy)ethyl]-1,2-dihydrospiro[indole-3,4′-piperidin]-2-one]	136	70.2
[2H]C([2H])([2H])N1C(=O)C2(CCN(CCOc3cnc(C4(S(C)(=O)=O)COC4)nc3)CC2)c2cc(Cl)ccc21 [Compound 422, 5-chloro-1′-(2-{[2-(3-methanesulfonyloxetan-3-yl)pyrimidin-5-yl]oxy}ethyl)-1-(^2H3)methyl-1,2-dihydrospiro[indole-3,4′-piperidin]-2-one]	165	63.5
CC1(O)CC(n2ncc3cc(OCCN4CCC5(CC4)C(=O)Nc4ccc(C#N)cc45)cnc32)C1 (stereo not drawn) [Compound 436, 1′-(2-{[1-(3-hydroxy-3-methylcyclobutyl)-1H-pyrazolo[3,4-b]pyridin-5-yl]oxy}ethyl)-2-oxo-1,2-dihydrospiro[indole-3,4′-piperidine]-5-carbonitrile]	114	80.1
C[C@]1(O)C[C@H](n2ncc3cc(OCCN4CCC5(CC4)C(=O)Nc4ccc(C#N)cc45)cnc32)C1 [Compound 438, 2-oxo-1′-[2-({1-[(trans)-3-hydroxy-3-methylcyclobutyl]-1H-pyrazolo[3,4-b]pyridin-5-yl}oxy)ethyl]-1,2-dihydrospiro[indole-3,4′-piperidine]-5-carbonitrile]	242	204
CS(=O)(=O)N1CCC(c2ccc(OCCN3CCC4(CC3)C(=O)Nc3ccc(Cl)cc34)cc2)CC1 [Compound 444, 5-chloro-1′-{2-[4-(1-methanesulfonylpiperidin-4-yl)phenoxy]ethyl}-1,2-dihydrospiro[indole-3,4′-piperidin]-2-one]	72.3	22.4
CC(C)(O)CN1C(=O)CCc2cc(OCCN3CCC4(CC3)C(=O)Nc3ccc(Cl)cc34)cnc21 [Compound 452, 5-chloro-1′-(2-{[8-(2-hydroxy-2-methylpropyl)-7-oxo-5,6,7,8-tetrahydro-1,8-naphthyridin-3-yl]oxy}ethyl)-1,2-dihydrospiro[indole-3,4′-piperidin]-2-one]	84.4	28.2
C[C@]1(O)C[C@@H](N2C(=O)NCc3cc(OCCN4CCC5(CC4)C(=O)Nc4ccc(C#N)cc45)cc(C(F)(F)F)c32)C1 [Compound 457, 2-oxo-1′-[2-({2-oxo-1-[(cis)-3-hydroxy-3-methylcyclobutyl]-8-(trifluoromethyl)-1,2,3,4-tetrahydroquinazolin-6-yl}oxy)ethyl]-1,2-dihydrospiro[indole-3,4′-piperidine]-5-carbonitrile]	> 3300	278
C[C@]1(O)C[C@@H](n2cnc3nc(OCCN4CCC5(CC4)C(=O)Nc4ccc(Cl)cc45)cc(C(F)(F)F)c32)C1 [Compound 471, 5-chloro-1′-[2-({1-[(cis)-3-hydroxy-3-methylcyclobutyl]-7-(trifluoromethyl)-1H-imidazo[4,5-b]pyridin-5-yl}oxy)ethyl]-1,2-dihydrospiro[indole-3,4′-piperidin]-2-one]	> 3300	> 3300
